Consider two molecules from patent US12396963B2, “Cannabidiol-type cannabinoid compound” (JAZZ PHARMACEUTICALS RESEARCH UK LIMITED, priority 2019, dated 2025).

SMILES strings stand for the structures.

One assay deals with mouse model of seizure. In words: Maximal electroshock seizure threshold (MEST) test in the mouse, Example 2. The conditions noted are these: CC50; 2.5 mg/kg i.p., 30 min pre-treatment. On the procedure: The efficacy of CBD-C1 was tested in a mouse model of seizure, the maximal electroshock seizure threshold (MEST) test.
The maximal electroshock seizure threshold (MEST) test is widely utilized preclinically to evaluate pro- and anti-convulsant properties of molecules (Loscher et al., 1991).
In the MEST test the ability of a drug to alter the seizure threshold current required to induce hind limb tonic extensor convulsions is measured according to an “up and down” method of shock titration (Kimball et al., 1957). An increase in seizure threshold is indicative of anti-convulsant effect.
Naïve mice were acclimatised to the procedure room in their home cages, with food and water available ad libitum.
Animals were dosed i.p. according to dose group.
The vehicle (10 ml/kg i.p. 60 min pre-treatment time) was 1:1:18 vehicle 5% ethanol, 5% kolliphor EL, 90% saline. […]
Mice were individually assessed for the production of a tonic hind limb extensor seizure using a Hugo Sachs Electronik stimulator, which delivered an adjustable constant current (1-300 mA) of 0.1 s duration via corneal electrodes. […]
Induction of seizure is measured as an all-or-nothing effect scored as either present (+) or absent (0) for each animal.
Data was analysed by comparing treated groups with the appropriate vehicle control using Fisher's Exact Probability tests.
A general note: The maximal electroshock test induces tonic seizures with an electrical stimulus.

Assay [1] deals with mouse model of generalised seizure. Nature of the assay: Maximal electroshock seizure threshold (MEST) test in the mouse, Example 3. The conditions noted are these: CC50, 30 min pre-treatment. On the procedure: The efficacy of CBD-C1 was tested in a mouse model of generalised seizure, the maximal electroshock seizure threshold (M EST) test, as in Example 2.
Naïve mice were acclimatised to the procedure room in their home cages for up to 7 days, with food and water available ad libitum.
All animals were weighed at the beginning of the study and randomly assigned to treatment groups based on a mean distribution of body weight across groups.
The first animal within a treatment group was given a shock at the expected or estimated CC50 current. For subsequent animals, the current was lowered or raised depending on the convulsions outcome from the preceding animal.
Data generated from each treatment group were used to calculate the CC50±SEM values for the treatment group.
Vehicle: (5% ethanol, 5% solutol, 90% Saline) was prepared as follows: 2 mL of ethanol, 2 mL of solutol were warmed to 60° C., in 36 mL of saline (1:1:18).
The test compound, CBD-C1 was prepared according to the method described in Example 1. […]
CBD-C1 effects were also calculated as percentage change in CC50 from the vehicle control group.
Significant difference between drug-treated animals and controls were assessed according to Litchfield and Wilcoxon (1949).

Consider `CN1C(=O)CN=C(c2ccccc2)c2cc(Cl)ccc21` [Diazepam, diazepam, reference compound], for which the figures for the “% change from vehicle” value (with mouse model of seizure; in assay [1] (2.5 mg/kg i.p.)) were 68% and 247%, respectively. As for `CCCC(CCC)C(=O)[O-].[Na+]` [Sodium Valproate, sodium valproate, reference compound], in assay [1] (250 mg/kg i.p.), the “% change from vehicle” value was determined as 1160%.
